Reference: patent US8466143B2, “Azepine derivatives as pharmaceutical agents” (Exelixis, Inc., priority 2003, dated 2013)

Biological target: T1, full length human farnesoid X receptor (Homo sapiens, UniProt Q96RI1)
T1 construct: CMX-farnesoid X receptor (full length human farnesoid X receptor); expressed in transfected cells; host or cells: CV-1 African Green Monkey Kidney cells
T1 sequence (Q96RI1 1-472 isoform Q96RI1-2): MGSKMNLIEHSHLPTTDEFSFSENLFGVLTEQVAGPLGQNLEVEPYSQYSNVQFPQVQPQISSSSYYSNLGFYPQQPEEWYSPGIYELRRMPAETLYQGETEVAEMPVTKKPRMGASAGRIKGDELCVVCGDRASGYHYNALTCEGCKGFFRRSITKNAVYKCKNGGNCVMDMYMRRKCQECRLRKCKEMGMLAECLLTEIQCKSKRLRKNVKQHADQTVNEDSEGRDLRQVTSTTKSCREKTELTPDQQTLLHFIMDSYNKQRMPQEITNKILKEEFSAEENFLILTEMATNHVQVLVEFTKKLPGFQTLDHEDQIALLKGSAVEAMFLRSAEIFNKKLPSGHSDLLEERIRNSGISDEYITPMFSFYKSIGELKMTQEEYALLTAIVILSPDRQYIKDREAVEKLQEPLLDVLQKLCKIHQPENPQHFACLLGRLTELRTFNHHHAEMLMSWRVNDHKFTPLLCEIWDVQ
T1 sequence (P19793 1-462 partner): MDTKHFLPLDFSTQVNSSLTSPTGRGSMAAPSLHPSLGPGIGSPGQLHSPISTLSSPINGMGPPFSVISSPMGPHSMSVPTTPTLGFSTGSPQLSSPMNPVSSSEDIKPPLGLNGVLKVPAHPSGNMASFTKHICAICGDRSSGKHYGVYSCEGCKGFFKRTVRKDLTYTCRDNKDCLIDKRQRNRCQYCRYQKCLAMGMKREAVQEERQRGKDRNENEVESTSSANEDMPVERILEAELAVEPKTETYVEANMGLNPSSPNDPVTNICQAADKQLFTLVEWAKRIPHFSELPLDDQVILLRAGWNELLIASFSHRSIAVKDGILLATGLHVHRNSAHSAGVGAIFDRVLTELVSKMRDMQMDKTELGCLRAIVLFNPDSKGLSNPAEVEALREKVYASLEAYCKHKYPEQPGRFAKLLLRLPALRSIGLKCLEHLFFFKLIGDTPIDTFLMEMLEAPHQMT
Test: farnesoid X receptor/ECREx7 co-transfection assay
Assay type: cell-based
Conditions: for EC50: CV-1 cells, agonist mode
Procedure: The basic co-transfection protocol for measuring the farnesoid X receptor activity is as follows. CV-1 African Green Monkey Kidney cells were plated 24 hours before transfection to achieve approximately 70-80 percent confluency. Cells were transfected with the following expression vectors, CMX-farnesoid X receptor (full length human farnesoid X receptor), CMX-RXRα (full length human RXR), Luc12 ((ECREx7-Tk-Luciferase) luciferase reporter gene construct. (See WO 00/76523, Venkateswaran et al., (2000) J. Biol. Chem. 275 14700-14707). A CMX-β-Galactosidase expression vector was used as a transfection control. The transfection reagent used was DOTAP (Boehringer Mannheim). Cells were incubated with the DOTAP/DNA mixture for 5 hours after which the cells were harvested and plated onto either 96 well or 384 well plates containing the appropriate concentration of test compound. The assay was allowed to continue for an additional 18-20 hours, after which the cells were lysed, with lysis buffer (1% triton X 100, 10% glycerol, 5 mM Dithiothreitol, 1 mM EGTA, 25 mM Tricine, pH 7.8) and the luciferase activity measured in the presence of Luciferase assay buffer (0.73 mM ATP, 22.3 mM Tricine, 0.11 mM EGTA, 0.55 mM Luciferin, 0.15 mM Coenzyme A, 0.5 mM HEPES, 10 mM Magnesium sulphate) on a standard luminomter plate reader (PE Biosystems, NorthStar Reader), using recommended operating instructions and conditions.
Both the farnesoid X receptor/ECREx7 co-transfection assay (Example 10) and the TR-FRET assay (Example 9) can be used to establish the EC50/IC50 values for potency and percent activity or inhibition for efficacy. Efficacy defines the activity of a compound relative to a high control (chenodeoxycholic acid, CDCA) or a low control (DMSO/vehicle). The dose response curves are generated from an 8 point curve with concentrations differing by ½ LOG units. Each point represents the average of 4 wells of data from a 384 well plate. The curve for the data is generated by using the equation: Y=Bottom+(Top-Bottom)/(1+10^((Log EC50−X)*HillSlope))
The EC50/IC50 is therefore defined as the concentration at which an agonist or antagonist elicits a response that is half way between the Top (maximum) and Bottom (baseline) values. The EC50/IC50 values represented are the averages of at least 3 independent experiments. The determination of the relative efficacy or % control for an agonist is by comparison to the maximum response achieved by chenodeoxycholic acid that is measured individually in each dose response experiment.
For the antagonist assay, CDCA is added to each well of a 384 well plate to elicit a response. The % inhibition for each antagonist is therefore a measurement of the inhibition of the activity of CDCA. In this example, 100% inhibition would indicate that the activity of CDCA has been reduced to baseline levels, defined as the activity of the assay in the presence of DMSO only.

Row | Structure (SMILES) | EC50 [nM] | efficacy (relative to maximum response of chenodeoxycholic acid (CDCA))
1 | CCOC(=O)C1CN(C(=O)c2ccc(F)cc2)CC(C)(C)c2c1[nH]c1c2CCCC1 (centres unmarked) [3-(4-Fluoro-benzoyl)-1,1-dimethyl-1,2,3,4,5,6,7,8,9,10-decahydro-azepino[4,5-b]indole-5-carboxylic acid ethyl ester] | ≤ 100 | 
2 | CCOC(=O)C1=CN(C(=O)c2ccc(F)cc2)CC(C)(C)c2c1[nH]c1c2CCCC1 [3-(4-Fluoro-benzoyl)-1,1-dimethyl-1,2,3,6,7,8,9,10-octahydro-azepino[4,5-b]indole-5-carboxylic acid ethyl ester] | ≤ 100 | 
3 | CCOC(=O)C1=CN(C(=O)c2ccc(F)cc2)CCc2c1[nH]c1c2CCCC1 [3-(4-Fluoro-benzoyl)-1,2,3,6,7,8,9,10-octahydro-azepino[4,5-b]indole-5-carboxylic acid ethyl ester] | ≤ 1000 | greater than 100%
4 | CCOC(=O)c1cc2c(n1C)C(C(=O)OC(C)C)=CN(C(=O)c1ccc(F)c(F)c1)CC2(C)C [6-(3,4-Difluoro-benzoyl)-1,4,4-trimethyl-1,4,5,6-tetrahydro-pyrrolo[2,3-d]azepine-2,8-dicarboxylic acid 2-ethyl ester 8-isopropyl ester] | ≤ 100 | 
5 | CCOC(=O)c1cc2c([nH]1)C(C(=O)OC(C)C)=CN(C(=O)c1ccc(F)c(F)c1)CC2(C)C [6-(3,4-Difluoro-benzoyl)-4,4-dimethyl-1,4,5,6-tetrahydro-pyrrolo[2,3-d]azepine-2,8-dicarboxylic acid 2-ethyl ester 8-isopropyl ester] | ≤ 100 | 
6 | CCOC(=O)C1=CN(C(=O)c2ccc(F)c(F)c2)CC(C)(C)c2cc(C(=O)OCC)[nH]c21 [6-(3,4-Difluoro-benzoyl)-4,4-dimethyl-1,4,5,6-tetrahydro-pyrrolo[2,3-d]azepine-2,8-dicarboxylic acid diethyl ester] | ≤ 100 | 
7 | CCOC(=O)C1=CN(C(=O)c2ccc(F)c(F)c2)CC(C)(C)c2ccsc21 [6-(3,4-Difluoro-benzoyl)-4,4-dimethyl-5,6-dihydro-4H-thieno[2,3-d]azepine-8-carboxylic acid ethyl ester] | ≤ 100 | 
